Test results published in PMC9569954, “The Antidepressant-like Activity, Effects on Recognition Memory Deficits, Bioavailability, and Safety after Chronic Administration of New Dual-Acting Small Compounds Targeting Neuropsychiatric Symptoms in Dementia” (International Journal of Molecular Sciences, 2022).
pKi: −log10 of the molar value. Read-outs that look alike come from different tables or passages of the source.

Key:
[1] = Liver enzymatic activity in serum (AlaT, AspaT, γGTP, ALP); format: in vivo, rats; details: rat, 1 mg/kg/day i.p.; for activity of AlaT, AspaT, γGTP, ALP in serum: three-week administration
Method: (§1) The blood samples were collected immediately after decapitation and then centrifuged at 600× g […], 4 °C, to separate the plasma. The blood was used to determine metabolic parameters such as glucose, cholesterol, and triglyceride levels, together with liver enzymatic activity.
To determine alanine aminotransferase (AlaT), […] (AspaT), alkaline phosphatase (ALP), or gamma-glutamyl transpeptidase (γGTP) activities in the serum, a standard enzymatic spectrophotometric test (Biomaxima S.A., Lublin, Poland) was used. Absorbance was measured at a wavelength of 340 nm (AlaT, AspaT) or 405 nm (ALP, γGTP).

Body weight measurement = format: in vivo, rats; details: rat, 20-day administration, 1 mg/kg/day i.p.
Method: Body weight was measured every second day, immediately before the administration of drugs.

5-HT7R = biological target: 5-HT7R; set-up: method as in PMID 35248836; details: read-out: Affinity 5-HT7R Ki; cited from earlier work
[2] = Serum glucose, triglyceride and cholesterol concentrations; format: in vivo, rats; details: rat, 1 mg/kg/day i.p., 21 days
Method: as §1
Standard enzymatic spectrophotometric tests (Biomaxima S.A., Lublin, Poland) were used to determine glucose, cholesterol, and triglyceride levels in the serum. In the presence of an appropriate enzyme, the substrate was converted to a colored compound. Absorbance was measured at a wavelength of 500 nm.

5-HT1AR = biological target: 5-HT1AR; set-up: method as in PMID 35248836; details: read-out: Affinity 5-HT1AR Ki; cited from earlier work
[3] = Pharmacokinetics and brain uptake after i.v. and i.g. administration; format: in vivo, male Wistar rats; details: rat; for half-life / Cmax / MRT / AUC(0-t) / C0 / clearance / bioavailability / Tmax / Kp / Vd: male, Wistar; for half-life: in vivo, elimination from body, route not stated; for bioavailability: i.g. 2 mg/kg vs i.v. 0.5 mg/kg, read-out: F (absolute bioavailability); for Kp: brain/plasma, read-out: Brain/Plasma ratio; for Vd: read-out: Vss
From the text: The compounds investigated, namely, PQA-AZ4 and PQA-AZ6 (UPLC/MS purity > 95%), were synthesized at the Department of Medicinal Chemistry, Jagiellonian University Medical College (synthesis described in [10]); PQ-10, (6,7-dimethoxy-4-[(3R)-3-(2-quinoxalinyloxy)-1-pyrrolidinyl]-quinazoline, was obtained from Sigma-Aldrich (St. Louis, MO, USA). For the studies, the compounds were suspended in 1% aqueous solution of Tween 80, while (+)-MK-801 (hydrogen maleate, Sigma-Aldrich, St. Louis, MO, USA) was dissolved in distilled water. In the behavioral studies, PQA-AZ4, PQA-AZ6, and PQ-10 were injected intraperitoneally (i.p.) once a day (between 9:00 AM and 10:00 AM) for 21 consecutive days at the minimum active doses selected previously, based on acute treatment and assessment in behavioral tests at a volume of 2 mL/kg body weight. The control groups received 1% aqueous solution of Tween 80 (Sigma-Aldrich, St. Louis, MO, USA) in the same schedule. For the pharmacokinetic study, PQA-AZ4 and PQA-AZ6 dissolved in 20% captizol (Ligand, San Diego, CA, USA) were administered intravenously (i.v.) and intragastrically (i.g.) at a dose of 0.5 and 2 mg/kg, respectively, while ketamine (50 mg/kg, (hydrochloride, Biowet Puławy, Puławy, Poland)) and xylazine (8 mg/kg, hydrochloride, Biowet Puławy, Poland)) were injected i.p.
HPLC grade methanol, acetonitrile and reagent grade formic acid, hydrochloric acid, potassium dihydrogen phosphate, orthophosphoric acid, and sodium chloride were purchased from Merck (Darmstadt, Germany). Tissues (control blood and brain) were obtained from adult male Wistar rats anesthetized by i.p. injection of 50 mg/kg ketamine plus 8 mg/kg xylazine, and blood samples were collected in heparinized tubes from the heart. Blood samples were collected at 0 (predose), 15, 60, 240, and 1440 min after compound administration. The plasma was separated by centrifugation (1000× g, 10 min). Plasma and brain were stored at −80 °C pending analysis. The LC/ESI-MS/MS experiments were performed on a UPLC ACQUITY H-Class PLUS/Xevo TQD (Waters Corporation, Milford, MA, USA) triple-quadrupole mass spectrometer equipped with an electrospray (ESI) ionization interface. Data acquisition and processing were accomplished using MassLynx data collection and integration software. For the chromatographic and mass spectrometric conditions, and sample pretreatment, please see the Supplementary Materials.
Pharmacokinetic parameters were calculated by a noncompartmental approach from the average concentration values, using Phoenix WinNonlin software (Certara, Princeton, NJ 08540 USA). The first-order elimination rate constant (λz) was calculated by linear regression of log concentration versus time. The area under the mean plasma and brain concentration versus time curve (AUC0→t) was calculated from zero to the last concentration point using the linear trapezoidal rule:(1) AUC0→t=∑i=1nCi+Ci+1/2·(ti+1−ti) where Ci is the concentration of the compound.
The area under the first-moment curve (AUMC0→t) was estimated by calculation of the total area under the first-moment curve:(2) AUMC0→t=∑i=1n((ti·Ci+ti+1·Ci+1)/2)·(ti+1−ti) where ti is the […].
Mean residence time (MRT) was calculated as:(3) MRT=AUMC0→t/AUC0→t
Systemic clearance (Cl) was calculated as:(4) Cl=Div/AUC0→t
The volume of distribution at steady state (Vss) was calculated as:(5) Vss=Div⋅AUMC0→t/(AUC0→t )^2
The absolute bioavailability (F) of PQA-AZ4 and PQA-AZ6 after i.g. administration was calculated as:(6) F(%)=AUCi.g./AUCi.v.⋅Di.v./Di.g.⋅100 where Di.v. and Di.g. are i.v. and i.g. doses of the studied molecules, respectively.
1. Methods in pharmacokinetic studies
Instrumentation and operating conditions
The LC/ESI-MS/MS experiments were performed on a UPLC ACQUITY H-Class PLUS/Xevo
TQD (Waters Corporation, USA) triple-quadrupole mass spectrometer equipped with an electrospray
(ESI) ionization interface. Data acquisition and processing were accomplished using MassLynx data […]

[4] = brain, iv, 0.5 mg/kg, i.v. 0.5 mg/kg
[5] = brain, po, 2 mg/kg, i.g. 2 mg/kg
[6] = plasma, iv, 0.5 mg/kg, i.v. 0.5 mg/kg, plasma
[7] = plasma, po, 2 mg/kg, i.g. 2 mg/kg

activity of AlaT, AspaT, γGTP, ALP in serum [1]	serum glucose concentration vs vehicle [2]	serum triglycerides concentration vs vehicle [2]	half-life [3] [h]	Cmax ([3]; iv, i.v. 0.5 mg/kg, brain) [ng/g]	MRT ([3]; iv, i.v. 0.5 mg/kg, brain) [h]	AUC(0-t) ([3]; iv, i.v. 0.5 mg/kg, plasma) [ng·h/mL]	C0 ([3]; iv, i.v. 0.5 mg/kg, plasma) [ng/mL]	MRT ([3]; iv, i.v. 0.5 mg/kg, plasma) [h]	clearance ([3]; iv, i.v. 0.5 mg/kg, plasma) [mL/min/kg]	bioavailability ([3]; plasma, oral) [%]	Cmax ([3]; po, i.g. 2 mg/kg, brain) [ng/g]	MRT ([3]; po, i.g. 2 mg/kg, brain) [h]	AUC(0-t) ([3]; po, i.g. 2 mg/kg, plasma) [ng·h/mL]	Cmax ([3]; po, i.g. 2 mg/kg, plasma) [ng/mL]	MRT ([3]; po, i.g. 2 mg/kg, plasma) [h]	Tmax [3, 4] [h]	Structure (SMILES)	weight gain vs vehicle (Body weight measurement)	pKi (5-HT7R)	pKi (5-HT1AR)	other results
no significant changes	did not significantly change	did not significantly change	~1	149	3.1	714	431	0.958	10.8	8.29	71.4	3.58	118	46.7	1.38	0.25	COc1cccc(N2CCN(CC3CCN(c4ncnc5cc(OC)c(OC)cc45)C3)CC2)c1 (stereo not shown) [PQA-AZ4, 6,7-Dimethoxy-4-(3-((4-(3-methoxyphenyl)piperazin-1-yl)methyl)pyrrolidin-1-yl)quinazoline]	No significant effect	6.63	7.74	total cholesterol concentration vs vehicle [2]: slight but statistically significant (p < 0.05) increase; bioavailability ([3]; plasma, po): 8.3%; Tmax [3, 5]: 1 h; Kp ([3]; iv, 0.5 mg/kg, i.v. 0.5 mg/kg): 0.9; Kp ([3]; po, 2 mg/kg, i.g. 2 mg/kg): 5.7; Vd [3, 6]: 0.8 L/kg; Tmax [3, 7]: ≤ 1 h; Brain/Plasma ratio ([3]; i.g. 2 mg/kg): 5.68; AUC0→t ([3]; i.g. 2 mg/kg, brain): 40,314 ng·min/g; t0.5 ([3]; i.g. 2 mg/kg, brain): 214 min; t0.5 ([3]; i.g. 2 mg/kg, plasma): 92 min; AUC0→t ([3]; i.v. 0.5 mg/kg, brain): 40,806 ng·min/g; t0.5 ([3]; i.v. 0.5 mg/kg, brain): 220 min; t0.5 ([3]; i.v. 0.5 mg/kg, plasma): 67.3 min
no significant changes	did not significantly change	did not significantly change	~1	113	7.4	93.6	102	0.742	85.2	38.4	342	12	144	99.5	1.11	0.25	COc1cc2ncnc(N3CCC(CN4CCN(c5ccc(Cl)cc5)CC4)C3)c2cc1OC (stereo not shown) [PQA-AZ6, 4-(3-((4-(4-Chlorophenyl)piperazin-1-yl)methyl)pyrrolidin-1-yl)-6,7-dimethoxyquinazoline]	No significant effect	6.87	6.46	γGTP activity in serum vs control ([1]; 21 days): significantly lower; Tmax [3, 5]: 0.25 h; Kp ([3]; iv, 0.5 mg/kg, i.v. 0.5 mg/kg): 8.6; Kp ([3]; po, 2 mg/kg, i.g. 2 mg/kg): 5.3; Vd [3, 6]: ~4.7 L/kg; Tmax [3, 7]: 0.25 h; Brain/Plasma ratio ([3]; i.g. 2 mg/kg): 5.29; AUC0→t ([3]; i.g. 2 mg/kg, brain): 45,623 ng·min/g; t0.5 ([3]; i.g. 2 mg/kg, brain): 1928 min; t0.5 ([3]; i.g. 2 mg/kg, plasma): 216.8 min; AUC0→t ([3]; i.v. 0.5 mg/kg, brain): 48,321 ng·min/g; t0.5 ([3]; i.v. 0.5 mg/kg, brain): 597 min; t0.5 ([3]; i.v. 0.5 mg/kg, plasma): 54.2 min
